Assay [1] has as its system human umbilical vein endothelial cells (HUVEC). Description: HUVEC + VEGF proliferation assay. To be noted: VEGF-stimulated proliferation, final VEGF 6 ng/mL, 72 hours, MTT. In kind it is cell-based. The procedure:
This assay determines the ability of a test compound to inhibit the growth factor-stimulated proliferation of human umbilical vein endothelial cells (“HUVEC”). HUVEC cells (passage 3–4, Clonetics, Corp.) were thawed into EGM2 culture medium (Clonetics Corp) in T75 flasks. Fresh EGM2 medium was added to the flasks 24 hours later. Four or five days later, cells were exposed to another culture medium (F12K medium supplemented with 10% fetal bovine serum (FBS), […] endothelial cell growth supplement (ECGS), and 0.1 mg/mL heparin). Exponentially-growing HUVEC cells were used in experiments thereafter. Ten to twelve thousand HUVEC cells were plated in 96-well dishes in […] of rich, culture medium (described above). The cells were allowed to attach for 24 hours in this medium. The medium was then removed by aspiration and […] of starvation media (F12K+1% FBS) was added to each well. After 24 hours, […] of test agent dissolved in 1% DMSO in starvation medium or this vehicle alone was added into each treatment well; the final DMSO concentration was 0.1%. One hour later, […] of VEGF (30 ng/mL) in starvation media was added to all wells except those containing untreated controls; the final VEGF concentration was 6 ng/mL. Cellular proliferation was quantified 72 hours later by MTT dye reduction, at which time cells were exposed for 4 hours MTT (Promega Corp.). Dye reduction was stopped by addition of a stop solution (Promega Corp.) and absorbance at 595 nm was determined on a 96-well spectrophotometer plate reader.

In assay [2] the target is T1, unphosphorylated VEGF-R2D50 (FLVK), cytosolic domain of human VEGF-R2 (Homo sapiens, UniProt P35968, DEL940-989/E990V).
T1 construct: VEGF-R2D50 contains residues 806–939 and 990–1171; made in house; host or cells: baculovirus/insect cell system
T1 sequence (P35968 with tags, fused parts or gaps DEL940-989/E990V limits assumed): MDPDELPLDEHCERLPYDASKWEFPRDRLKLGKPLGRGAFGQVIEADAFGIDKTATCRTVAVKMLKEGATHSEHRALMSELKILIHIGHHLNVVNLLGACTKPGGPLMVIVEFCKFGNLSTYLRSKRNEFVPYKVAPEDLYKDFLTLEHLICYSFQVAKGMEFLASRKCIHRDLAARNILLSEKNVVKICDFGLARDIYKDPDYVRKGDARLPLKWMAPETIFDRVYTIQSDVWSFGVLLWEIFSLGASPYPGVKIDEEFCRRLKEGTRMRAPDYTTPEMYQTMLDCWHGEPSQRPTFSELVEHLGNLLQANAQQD
Description: VEGF-R2 coupled spectrophotometric assay (FLVK). In kind it is biochemical. The source says: This construct determines the ability of a test compound to inhibit tyrosine kinase activity. A construct (VEGF-R2D50) of the cytosolic domain of human vascular endothelial growth factor receptor 2 (VEGF-R2) lacking the 50 central residues of the 68 residues of the kinase insert domain was expressed in a baculovirus/insect cell system. Of the 1356 residues of full-length VEGF-R2, VEGF-R2D50 contains residues 806–939 and 990–1171, and also one point mutation (E990V) within the kinase insert domain relative to wild-type VEGF-R2. Autophosphorylation of the purified construct was performed by incubation of the enzyme at a concentration of […] in the presence of 3 mM ATP and 40 mM MgCl2 in 100 mM HEPES, pH 7.5, containing 5% glycerol and 5 mM DTT, at 4° C. for 2 h. […] See Parast et al., Biochemistry, 37, 16788–16801 (1998).
The production of ADP from ATP that accompanies phosphoryl transfer was coupled to oxidation of NADH using phosphoenolpyruvate (PEP) and a system having pyruvate kinase (PK) and lactic dehydrogenase (LDH). The oxidation of NADH was monitored by following the decrease of absorbance at 340 nm (e340=6.22 cm^−1 mM^−1) using a Beckman DU 650 spectrophotometer. Assay conditions for phosphorylated VEGF-R2D50 (indicated as FLVK-P in the tables below) were the following: 1 mM PEP; […]; 50 units of LDH/mL; 20 units of PK/mL; 5 mM DTT; 5.1 mM poly(E4Y1); 1 mM ATP; and 25 mM MgCl2 in 200 mM HEPES, pH 7.5. Assay conditions for unphosphorylated VEGF-R2D50 (indicated as FLVK in the tables) were the following: 1 mM PEP; […]; 50 units of LDH/mL; 20 units of PK/mL; 5 mM DTT; 20 mM poly(E4Y1); 3 mM ATP; and 60 mM MgCl2 and 2 mM MnCl2 in 200 mM HEPES, pH 7.5. Assays were initiated with 5 to 40 nM of enzyme. Ki values were determined by measuring enzyme activity in the presence of varying concentrations of test compounds. The percent inhibition at 50 nm (% inhibition@50 nm) was determined by linear least-squares regression analysis of absorpbance as a function of time. The binding inhibitions were fitted to equation as described by Morrison. The data were analyzed using Enzyme Kinetic and Kaleidagraph software.

Assay [3] concerns the target T2, FGF-R1 intracellular kinase domain (Homo sapiens, UniProt P11362, C488A/C584S/L457V).
T2 construct: starting from the endogenous methionine residue 456 to glutamate 766; made in house; host or cells: baculovirus vector expression system
The assay can be described thus: FGF-R spectrophotometric assay. In kind it is biochemical. The note with it: 50 nM test compound; read-out: FGF-P (% inh @ 50 nM). The protocol:
The intracellular kinase domain of human FGF-R1 was expressed using the baculovirus vector expression system starting from the endogenous methionine residue 456 to glutamate 766, according to the residue numbering system of Mohammadi et al., Mol. Cell. Biol., 16, 977–989 (1996). In addition, the construct also has the following 3 amino acid substitutions: L457V, C488A, and C584S.
The spectrophotometric assay was carried out as described above for VEGF-R2, except for the following changes in concentration: FGF-R=50 nM, ATP=2 mM, and poly(E4Y1)=15 mM.

Here are results for 16 molecules from patent publication US7208500B2, “Thienopyridine-phenylacetamides and their derivatives useful as new anti-angiogenic agents” (Agouron Pharmaceuticals, Inc., priority 2003, dated 2007).

The term IC50 denotes the concentration needed to halve the response being measured. Broadly, the Ki is the dissociation constant of the complex between target and ligand, obtained from inhibition or displacement.

T2 sequence (P11362 456-766 L457V/C488A/C584S): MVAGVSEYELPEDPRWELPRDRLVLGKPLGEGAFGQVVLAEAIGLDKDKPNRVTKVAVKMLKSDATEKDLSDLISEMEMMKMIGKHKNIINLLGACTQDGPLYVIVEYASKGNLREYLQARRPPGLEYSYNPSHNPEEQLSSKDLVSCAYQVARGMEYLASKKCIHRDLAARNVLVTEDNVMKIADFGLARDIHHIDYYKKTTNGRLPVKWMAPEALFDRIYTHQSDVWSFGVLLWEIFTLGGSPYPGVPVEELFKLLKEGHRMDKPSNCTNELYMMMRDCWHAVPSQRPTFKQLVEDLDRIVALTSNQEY

Turning to `Cc1ccnc(NC(=O)Cc2ccc(Oc3ccnc4cc(-c5nccn5C)sc34)cc2)c1` [Example 11, 2-{4-[2-(1-Methyl-1H-imidazol-2-yl)-thieno[3,2-b]pyridin-7-yloxy]-phenyl}-N-(4-methyl-pyridin-2-yl)-acetamide], in assay [1], the IC50 was greater than 10 nM. Further, the Ki in assay [2] is less than 1 nM. For the same molecule, the inhibition at 0.05 µM in assay [3] fell in the range of 0 to 5%.
For `Cn1ccnc1-c1cc2nccc(Oc3ccc(CC(=O)Nc4cc5ccccc5cn4)cc3)c2s1` [Example 12, N-Isoquinolin-3-yl-2-(4-[2-(1-methyl-1H-imidazol-2-yl)-thieno[3,2-b]pyridin-7-yloxy]-phenyl}-acetamide], the 50% inhibitory concentration (IC50) in assay [1] was greater than 10 nM. Moreover, the inhibition constant (Ki) in assay [2] is less than 1 nM. In assay [3], the inhibition at 0.05 µM is 5 to 10%.
Taken in the same sequence, the figures for `Cn1ccnc1-c1cc2nccc(Oc3ccc(CC(=O)Nc4ccc(C(F)(F)F)cn4)cc3)c2s1` [Example 13, 2-{4-[2-(1-Methyl-1H-imidazol-2-yl)-thieno[3,2-b]pyridin-7-yloxy]-phenyl}-N-(5-trifluoromethyl-pyridin-2-yl)-acetamide] were greater than 10 nM, less than 1 nM and 5 to 10%.
In the case of `Cc1cc(C)nc(NC(=O)Cc2ccc(Oc3ccnc4cc(C(=O)N5CC[C@@H](O)C5)sc34)cc2)c1` [Example 14, N-(4,6-Dimethyl-pyridin-2-yl)-2-{4-[2-((R)-3-hydroxy-pyrrolidine-1-carbonyl)-thieno[3,2-b]pyridin-7-yloxy]-phenyl}-acetamide], the IC50 in assay [1] fell in the range of 1 to 10 nM. Also, the Ki in assay [2] is less than 1 nM. For the same molecule, the inhibition at 0.05 µM in assay [3] fell in the range of 5 to 10%.
Take `Cc1ccnc(NC(=O)Cc2ccc(Oc3ccnc4cc(C(=O)N5CC[C@@H](O)C5)sc34)cc2)c1` [Example 15, 2-{4-[2-((R)-3-Hydroxy-pyrrolidine-1-carbonyl)-thieno[3,2-b]pyridin-7-yloxy]-phenyl}-N-(4-methyl-pyridin-2-yl)-acetamide]: the half-maximal inhibitory concentration (IC50) in assay [1] is less than 1 nM. The molecule further yielded a Ki in assay [2] of less than 1 nM. The inhibition at 0.05 µM in assay [3] lay within 0 to 5%.
As for `O=C(Cc1ccc(Oc2ccnc3cc(C(=O)N4CC[C@@H](O)C4)sc23)cc1)Nc1ccc(Cl)cn1` [Example 16, N-(5-Chloro-pyridin-2-yl)-2-{4-[2-((R)-3-hydroxy-pyrrolidine-1-carbonyl)-thieno[3,2-b]pyridin-7-yloxy]-phenyl}-acetamide], the half-maximal inhibitory concentration (IC50) in assay [1] is greater than 10 nM. The same molecule registered a Ki in assay [2] of 1 to 10 nM. The inhibition at 0.05 µM in assay [3] lay in the range of 0 to 5%.
As to `O=C(Cc1ccc(Oc2ccnc3cc(C(=O)N4CC[C@@H](O)C4)sc23)cc1)Nc1cc2ccccc2cn1` [Example 17, 2-{4-[2-((R)-3-Hydroxy-pyrrolidine-1-carbonyl)-thieno[3,2-b]pyridin-7-yloxy]-phenyl}-N-isoquinolin-3-yl-acetamide], in assay [1], the IC50 was greater than 10 nM. Further, the Ki in assay [2] is less than 1 nM. Also, in assay [3], the inhibition at 0.05 µM is greater than 10%.
The like results for `O=C(Cc1ccc(Oc2ccnc3cc(C(=O)N4CC[C@@H](O)C4)sc23)cc1)Nc1ccc(C(F)(F)F)cn1` [Example 18, 2-{4-[2-((R)-3-Hydroxy-pyrrolidine-1-carbonyl)-thieno[3,2-b]pyridin-7-yloxy]-phenyl}-N-(5-trifluoromethyl-pyridin-2-yl)-acetamide] were, in that order, greater than 10 nM, less than 1 nM and 5 to 10%.
Taken in the same sequence, the figures for `O=C(Cc1ccc(Oc2ccnc3cc(C(=O)N4CC[C@@H](O)C4)sc23)cc1)Nc1ccccn1` [Example 19, 2-{4-[2-((R)-3-Hydroxy-pyrrolidine-1-carbonyl)-thieno[3,2-b]pyridin-7-yloxy]-phenyl}-N-pyridin-2-yl-acetamide] were greater than 10 nM, 1 to 10 nM and 0 to 5%.
For `O=C(Cc1ccc(Oc2ccnc3cc(C(=O)N4CC[C@@H](O)C4)sc23)cc1)Nc1ccccc1` [Example 20, 2-{4-[2-((R)-3-Hydroxy-pyrrolidine-1-carbonyl)-thieno[3,2-b]pyridin-7-yloxy]-phenyl}-N-phenyl-acetamide], the IC50 in assay [1] was 1 to 10 nM. For the same molecule, in assay [2], the inhibition constant (Ki) is 1 to 10 nM. Besides, the inhibition at 0.05 µM in assay [3] is 0 to 5%.
As for `Cc1ccnc(NC(=O)Cc2ccc(Oc3ccnc4cc(C(=O)N5CCC5)sc34)cc2)c1` [Example 23, 2-{4-[2-(Azetidine-1-carbonyl)-thieno[3,2-b]pyridin-7-yloxy]-phenyl}-N-(4-methyl-pyridin-2-yl)-acetamide], the IC50 in assay [1] was less than 1 nM. This molecule yielded a Ki in assay [2] of less than 1 nM. For the same molecule, the inhibition at 0.05 µM in assay [3] lay in the range of 0 to 5%.
As to `Cc1ccc(NC(=O)Cc2ccc(Oc3ccnc4cc(C(=O)N5CCC5)sc34)cc2)nc1` [Example 24, 2-{4-[2-(Azetidine-1-carbonyl)-thieno[3,2-b]pyridin-7-yloxy]-phenyl}-N-(5-methyl-pyridin-2-yl)-acetamide], the IC50 in assay [1] was in the range of 1 to 10 nM. The molecule further showed a Ki in assay [2] of less than 1 nM. The inhibition at 0.05 µM in assay [3] fell in the range of 0 to 5%.
As to `Cc1cccc(NC(=O)Cc2ccc(Oc3ccnc4cc(C(=O)N5CCC5)sc34)cc2)n1` [Example 25, 2-{4-[2-(Azetidine-1-carbonyl)-thieno[3,2-b]pyridin-7-yloxy]-phenyl}-N-(6-methyl-pyridin-2-yl)-acetamide], the IC50 in assay [1] lay in the range of 1 to 10 nM. Moreover, the Ki in assay [2] is less than 1 nM. Further, in assay [3], the inhibition at 0.05 µM was 5 to 10%.
For `O=C(Cc1ccc(Oc2ccnc3cc(C(=O)N4CCC4)sc23)cc1)Nc1ccc(C(F)(F)F)cn1` [Example 27, 2-{4-[2-(Azetidine-1-carbonyl)-thieno[3,2-b]pyridin-7-yloxy]-phenyl}-N-(5-trifluoromethyl-pyridin-2-yl)-acetamide], the 50% inhibitory concentration (IC50) in assay [1] was in the range of 1 to 10 nM. The inhibition constant (Ki) in assay [2] is less than 1 nM. Also, the inhibition at 0.05 µM in assay [3] was 0 to 5%.
Taken in the same sequence, the figures for `O=C(Cc1ccc(Oc2ccnc3cc(C(=O)N4CCC4)sc23)cc1)Nc1ccc(Cl)cn1` [Example 28, 2-{4-[2-(Azetidine-1-carbonyl)-thieno[3,2-b]pyridin-7-yloxy]-phenyl}-N-(5-chloro-pyridin-2-yl)-acetamide] were less than 1 nM, less than 1 nM and 5 to 10%.
As to `O=C(Cc1ccc(Oc2ccnc3cc(C(=O)N4CCC4)sc23)cc1)Nc1ccc(F)cn1` [Example 29, 2-{4-[2-(Azetidine-1-carbonyl)-thieno[3,2-b]pyridin-7-yloxy]-phenyl}-N-(5-fluoro-pyridin-2-yl)-acetamide], in assay [1], the IC50 was greater than 10 nM. The Ki in assay [2] lay in the range of 1 to 10 nM. For the same molecule, the inhibition at 0.05 µM in assay [3] fell in the range of 0 to 5%.
